Test system: TNFα release from human peripheral blood mononuclear cells
Assay: TNFα screen
Type: cell-based
Details: LPS-stimulated human peripheral blood mononuclear cells, 18 hours incubation, TNFα in supernatant by ELISA; read-out: TNF IC50
Experimental: Venous blood is collected from healthy volunteers and the mononuclear cells purified by centrifugation through Histopaque (Ficoll) cushions. TNFα production from these cells is stimulated by addition of lipopolysaccharide. After 18 hours incubation in the presence of LPS, the cell supernatant is removed and the concentration of TNFα in the supernatant determined by ELISA.

| Compound | IC50 |
| --- | --- |
| CC(C)(C)c1cc(NC(=O)NCc2ccccc2Sc2ccc3nnc(-c4ccccc4O)n3c2)n(-c2cccc(C#N)c2)n1 [Example 51] | 0.7 nM |
| CC(C)(C)c1cc(NC(=O)NCc2ccccc2Sc2ccc3nnc(-c4ccccc4Cl)n3c2)n(-c2cccc(O)c2)n1 [Example 54] | 0.7 nM |
| CC(C)(C)c1cc(NC(=O)NCc2ccccc2Sc2ccc3nnc(-c4ccccc4O)n3c2)n(-c2cccc(O)c2)n1 [Example 55] | 0.9 nM |
| Cc1cc(O)cc(-n2nc(C(C)(C)C)cc2NC(=O)NCc2ccccc2Sc2ccc3nnc(C(C)C)n3c2)c1 [Example 57] | 1.2 nM |
| Cc1cccc(-n2nc(C(C)(C)C)cc2NC(=O)NCc2ccccc2Sc2ccc3nnc(-c4cc(Cl)ccc4O)n3c2)c1 [Example 58] | 1.6 nM |
| CSCC(C)(C)c1cc(NC(=O)NCc2ccccc2Sc2ccc3nnc(-c4ccccc4O)n3c2)n(-c2cccc(OCCO)c2)n1 [Example 59] | 1.3 nM |
| CSCC(C)(C)c1cc(NC(=O)NCc2ccccc2Sc2ccc3nnc(-c4ccccc4O)n3c2)n(-c2ccccc2)n1 [Example 60] | 1.4 nM |
| CSCC(C)(C)c1cc(NC(=O)NCc2ccccc2Sc2ccc3nnc(-c4ccccc4O)n3c2)n(-c2cccc(F)c2)n1 [Example 63] | 1.4 nM |
| CSCC(C)(C)c1cc(NC(=O)NCc2ccccc2Sc2ccc3nnc(-c4ccccc4O)n3c2)n(-c2ccc(F)c(F)c2)n1 [Example 64] | 0.9 nM |
| CC(C)c1nnc2ccc(Sc3ccccc3CNC(=O)Nc3cc(C(C)(C)C)nn3-c3ccc(O)c(Cl)c3)cn12 [Example 73] | 0.9 nM |
| CCc1cc(-n2nc(C(C)(C)C)cc2NC(=O)NCc2ccccc2Sc2ccc3nnc(C(C)C)n3c2)ccc1O [Example 74] | 4 nM |
| CC(C)c1nnc2ccc(Sc3ccccc3CNC(=O)Nc3cc(C(C)(C)C)nn3-c3ccc(Cl)c(O)c3)cn12 [Example 76] | 0.8 nM |
| CC(C)(C)c1cc(NC(=O)NCc2ccccc2Sc2ccc3nnc(-c4ccc(O)cc4Cl)n3c2)n(-c2ccc(F)c(F)c2)n1 [Example 77] | 2.7 nM |
| CC(C)(C)c1cc(NC(=O)NCc2ccccc2Sc2ccc3nnc(-c4cc(O)ccc4Cl)n3c2)n(-c2ccc(F)c(F)c2)n1 [Example 78] | 0.8 nM |

Same assay, conditions: PBMC; LPS-stimulated human peripheral blood mononuclear cells, 18 hours incubation, TNFα in supernatant by ELISA; read-out: TNF IC50

| Compound | IC50 |
| --- | --- |
| CSC(C)(C)c1cc(NC(=O)NCc2ccccc2Sc2ccc3nnc(C(C)C)n3c2)n(-c2cccc(O)c2)n1 [Example 26, N-{1-(3-Hydroxyphenyl)-3-[1-methyl-1-(methylthio)ethyl]-1H-pyrazol-5-yl}-N′-{2-[(3-isopropyl[1,2,4]triazolo[4,3-a]pyridin-6-yl)thio]benzyl}urea] | 1.6 nM |
| COc1ccc(-n2nc(C(C)(C)C)cc2NC(=O)NCc2ccccc2Sc2ccc3nnc(C(C)C)n3c2)cc1Cl [Example 33, N-[3-tert-Butyl-1-(3-chloro-4-methoxyphenyl)-1H-pyrazol-5-yl]-N′-{2-[(3-isopropyl[1,2,4]triazolo[4,3-a]pyridin-6-yl)thio]-benzyl}urea] | 2 nM |
| CC(C)c1nnc2ccc(Sc3ccccc3CNC(=O)Nc3cc(C(C)(C)C)nn3-c3cccnc3)cn12 [Example 34, N-(3-tert-Butyl-1-pyridin-3-yl-1H-pyrazol-5-yl)-N′-{2-[(3-isopropyl[1,2,4]triazolo[4,3-a]pyridin-6-yl)thio]benzyl}-urea] | 1.3 nM |
| Cc1ccc(-n2nc(C(C)(C)C)cc2NC(=O)NCc2ccccc2Sc2ccc3nnc(-c4cccc(O)c4Cl)n3c2)cc1 [Example 36, N-[3-tert-Butyl-1-(4-methylphenyl)-1H-pyrazol-5-yl]-N′-(2-{[3-(2-chloro-3-hydroxyphenyl)[1,2,4]triazolo[4,3-a]pyridin-6-yl]thio}benzyl)urea] | 4.8 nM |
| CSC(C)(C)c1cc(NC(=O)NCc2ccccc2Sc2ccc3nnc(C(C)C)n3c2)n(-c2cccc(OCCO)c2)n1 [Example 37] | 2.8 nM |
| CC(C)c1ccccc1-c1nnc2ccc(Sc3ccccc3CNC(=O)Nc3cc(C(C)(C)C)nn3-c3cccc(OCCO)c3)cn12 [Example 44, N-{3-tert-Butyl-1-[3-(2-hydroxyethoxy)phenyl]-1H-pyrazol-5-yl}-N′-(2-{[3-(2-isopropylphenyl)[1,2,4]triazolo[4,3-a]pyridin-6-yl]thio}benzyl)urea] | 1.1 nM |
| COc1ccccc1-c1nnc2ccc(Sc3ccccc3CNC(=O)Nc3cc(C(C)(C)C)nn3-c3cccc(OCCO)c3)cn12 [Example 45, N-{3-tert-Butyl-1-[3-(2-hydroxyethoxy)phenyl]-1H-pyrazol-5-yl}-N′-(2-{[3-(2-methoxyphenyl)[1,2,4]triazolo[4,3-a]pyridin-6-yl]thio}benzyl)urea] | 1.4 nM |
| CC(C)(C)c1cc(NC(=O)NCc2ccccc2Sc2ccc3nnc(-c4ccccc4O)n3c2)n(-c2ccc(F)cc2)n1 [Example 46, N-[3-tert-Butyl-1-(4-fluorophenyl)-1H-pyrazol-5-yl]-N′-(2-{[3-(2-hydroxyphenyl)[1,2,4]triazolo[4,3-a]pyridin-6-yl]thio}benzyl)urea] | 0.8 nM |
| CC(C)(C)c1cc(NC(=O)NCc2ccccc2Sc2ccc3nnc(-c4ccccc4O)n3c2)n(-c2cccnc2)n1 [Example 70, N-(3-tert-Butyl-1-pyridin-3-yl-1H-pyrazol-5-yl)-N′-(2-{[3-(2-hydroxyphenyl)[1,2,4]triazolo[4,3-a]pyridin-6-yl]thio}benzyl)urea] | 0.9 nM |
| CC(C)(C)c1cc(NC(=O)NCc2ccccc2Sc2ccc3nnc(-c4ccccc4O)n3c2)n(-c2ccccn2)n1 [Example 71, N-(3-tert-Butyl-1-pyridin-2-yl-1H-pyrazol-5-yl)-N′-(2-{[3-(2-hydroxyphenyl)[1,2,4]triazolo[4,3-a]pyridin-6-yl]thio}benzyl)urea] | 3 nM |
| CC(C)(C)c1cc(NC(=O)NCc2ccccc2Sc2ccc3nnc(-c4ccccc4O)n3c2)n(-c2cccc(OCCO)c2)n1 [Example 80, N-{3-tert-Butyl-1-[3-(2-hydroxyethoxy)phenyl]-1H-pyrazol-5-yl}-N′-(2-{[3-(2-hydroxyphenyl)[1,2,4]triazolo[4,3-a]pyridin-6-yl]thio}benzyl)urea] | 1.1 nM |
| CSC(C)(C)c1cc(NC(=O)NCc2ccccc2Sc2ccc3nnc(-c4cc(Cl)ccc4O)n3c2)n(-c2cccc(C)c2)n1 [Example 86, N-(2-{[3-(5-Chloro-2-hydroxyphenyl)[1,2,4]triazolo[4,3-a]pyridin-6-yl]thio}benzyl)-N′-[3-[1-methyl-1-(methylthio)ethyl]-1-(3-methylphenyl)-1H-pyrazol-5-yl]urea] | 0.8 nM |
| CSC(C)(C)c1cc(NC(=O)NCc2ccccc2Sc2ccc3nnc(-c4cc(Cl)ccc4O)n3c2)n(-c2ccc(C)cc2)n1 [Example 87, N-(2-{[3-(5-Chloro-2-hydroxyphenyl)[1,2,4]triazolo[4,3-a]pyridin-6-yl]thio}benzyl)-N′-[3-[1-methyl-1-(methylthio)ethyl]-1-(4-methylphenyl)-1H-pyrazol-5-yl]urea] | 0.6 nM |
| CSc1ccccc1-c1nnc2ccc(Sc3ccccc3CNC(=O)Nc3cc(C(C)(C)C)nn3-c3cccc(O)c3)cn12 [Example 93, N-[3-tert-Butyl-1-(3-hydroxyphenyl)-1H-pyrazol-5-yl]-N′-[2-({3-[2-(methylthio)phenyl][1,2,4]triazolo[4,3-a]pyridin-6-yl}thio)benzyl]urea] | 1.1 nM |

From patent US8076356B2, “Triazolopyridinylsulfanyl derivatives as P38 map kinase inhibitors” (Pfizer Inc., priority 2004, dated 2011)
